Results: patent publication US20110009263A1, “SELECTED SALTS OF 3-(5,6-DIHYDRO-1,4,2-DIOXAZIN-3-YL)-N-[(4,6-DIMETHOXYPYRIMIDIN-2-YL)CARBAMOYL]PYRIDINE-2-SULFONAMIDE, METHOD FOR THE PRODUCTION THEREOF, AND USE THEREOF AS HERBICIDES AND PLANT GROWTH REGULATORS” (priority 2008, published 2011)

Tests used:
Format in all cases: in vivo
[1] = system: Eleusine indica; conditions: for ELEIN (post-emergence herbicidal action score): 2-4 leaf stage, 5 g of a.i./ha, scored after four weeks, 0=no damage, 100=complete control
Description: (§1) Seeds or rhizome pieces of monocotyledonous and dicotyledonous weeds were placed in sandy loam in plastic pots (Jiffy pots), covered with soil and cultivated in a greenhouse under good and defined growth conditions, i.e. at a day/night rhythm of 22° C./14° C. At the 2-4 leaf stage, the plants were then treated with an aqueous test solution of various compounds according to the invention at the stated dosage. After four weeks, the tests were scored according to the scheme below:
(§2) 0=no damage; 100=complete control
(§3) The control used was the Na^+ salt of 3-(5,6-dihydro-1,4,2-dioxazin-3-yl)-N-[(4,6-dimethoxypyrimidin-2-yl)carbamoyl]pyridine-2-sulfonamide which is already known from U.S. Pat. No. 5,476,936.

[2] = system: Ambrosia elatior; conditions: for AMBEL (post-emergence herbicidal action score): 2-4 leaf stage, 5 g of a.i./ha, scored after four weeks, 0=no damage, 100=complete control
Description: as §1, §2, §3

[3] = system: Matricaria inodora; conditions: pre-emergence, application rate of 0.08 kg or less of active substance per hectare, 3 to 4 weeks
From the text: (§4) Seeds or rhizome pieces of mono- and dicotyledonous weeds were placed in sandy loam in cardboard pots and covered with soil. The compounds according to the invention, formulated in the form of wettable powders or emulsion concentrates, were then applied to the surface of the covering soil in the form of aqueous suspensions or emulsions at an application rate of 100 to 800 l of water/ha (converted), at various dosages.
(§5) After the treatment, the pots were placed in a greenhouse and kept under good growth conditions for the weeds. The visual scoring of the damage to the plants or the emergence damage was carried out after the emergence of the test plants after a test period of 3 to 4 weeks, by comparison with untreated controls. As shown by the results, the compounds according to the invention have good herbicidal pre-emergence activity against a broad spectrum of weed grasses and broad-leaved weeds.

[4] = system: Viola tricolor; conditions: pre-emergence, application rate of 0.08 kg or less of active substance per hectare, 3 to 4 weeks
From the text: as §4, §5

[5] = system: Stellaria media; conditions: pre-emergence, application rate of 0.08 kg or less of active substance per hectare, 3 to 4 weeks
From the text: as §4, §5

[6] = system: Papaver rhoeas; conditions: pre-emergence, application rate of 0.08 kg or less of active substance per hectare, 3 to 4 weeks
From the text: as §4, §5

Molecule	ELEIN (post-emergence herbicidal action score) [1]	controlling action against the monocotyledonous weed Eleusine indica (in words) ([1]; post-emergence)	AMBEL (post-emergence herbicidal action score) [2]	effectiveness against the dicotyledonous weed Ambrosia elatior (in words) ([2]; post-emergence)	herbicidal activity against Matricaria inodora [3]	herbicidal activity against Viola tricolor [4]	herbicidal activity against Stellaria media [5]	herbicidal activity against Papaver rhoeas [6]	control of Ambrosia elatior ([2]; post-emergence) [%]
COc1cc(OC)nc(NC(=O)NS(=O)(=O)c2ncccc2C2=NOCCO2)n1.[Na] [control, Na^+ salt of 3-(5,6-dihydro-1,4,2-dioxazin-3-yl)-N-[(4,6-dimethoxypyrimidin-2-yl)carbamoyl]pyridine-2-sulfonamide, reference compound]	75	good controlling action	20	controlled relatively weakly					
CC(C)N.COc1cc(OC)nc(NC(=O)NS(=O)(=O)c2ncccc2C2=NOCCO2)n1 [Compound I-14, Propan-2-aminium {[3-(5,6-dihydro-1,4,2-dioxazin-3-yl)pyridin-2-yl]sulfonyl}[(4,6-dimethoxypyrimidin-2-yl)carbamoyl]azanide]	80		90		very good herbicidal activity	very good herbicidal activity	very good herbicidal activity	very good herbicidal activity	
2-(Acetyloxy)-N,N,N-trimethylethanaminium {[3-(5,6-dihydro-1,4,2-dioxazin-3-yl)pyridin-2-yl]sulfonyl}[(4,6-dimethoxypyrimidin-2-yl)carbamoyl]azanide [Compound I-40]	93		80		very good herbicidal activity	very good herbicidal activity	very good herbicidal activity	very good herbicidal activity	
COc1cc(OC)nc(NC(=O)[N-]S(=O)(=O)c2ncccc2C2=NOCCO2)n1.[K+] [Compound I-2, Potassium {[3-(5,6-dihydro-1,4,2-dioxazin-3-yl)pyridin-2-yl]sulfonyl}[(4,6-dimethoxypyrimidin-2-yl)carbamoyl]azanide]	80		80		very good herbicidal activity	very good herbicidal activity	very good herbicidal activity	very good herbicidal activity	
COc1cc(OC)nc(NC(=O)NS(=O)(=O)c2ncccc2C2=NOCCO2)n1.N [Compound I-5, Ammonium {[3-(5,6-dihydro-1,4,2-dioxazin-3-yl)pyridin-2-yl]sulfonyl}[(4,6-dimethoxypyrimidin-2-yl)carbamoyl]azanide]	80		75		very good herbicidal activity	very good herbicidal activity	very good herbicidal activity	very good herbicidal activity	≥ 75
2-Hydroxy-N-(2-hydroxyethyl)ethanaminium {[3-(5,6-dihydro-1,4,2-dioxazin-3-yl)pyridin-2-yl]sulfonyl}[(4,6-dimethoxypyrimidin-2-yl)carbamoyl]azanide [Compound I-35]	80		85		very good herbicidal activity	very good herbicidal activity	very good herbicidal activity	very good herbicidal activity	
2-hydroxy-N,N,N-trimethylethanaminium {[3-(5,6-dihydro-1,4,2-dioxazin-3-yl)pyridin-2-yl]sulfonyl}[(4,6-dimethoxypyrimidin-2-yl)carbamoyl]azanide [Compound I-38]	85		80		very good herbicidal activity	very good herbicidal activity	very good herbicidal activity	very good herbicidal activity	
2-Chloro-N,N,N-trimethylethanaminium {[3-(5,6-dihydro-1,4,2-dioxazin-3-yl)pyridin-2-yl]sulfonyl}[(4,6-dimethoxypyrimidin-2-yl)carbamoyl]azanide [Compound I-39]	93		80		very good herbicidal activity	very good herbicidal activity	very good herbicidal activity	very good herbicidal activity	
COc1cc(OC)nc(NC(=O)[N-]S(=O)(=O)c2ncccc2C2=NOCCO2)n1.[Li+] [Compound I-1, Lithium {[3-(5,6-dihydro-1,4,2-dioxazin-3-yl)pyridin-2-yl]sulfonyl}[(4,6-dimethoxypyrimidin-2-yl)carbamoyl]azanide]	85		80		very good herbicidal activity	very good herbicidal activity	very good herbicidal activity	very good herbicidal activity	
